Assay results as given in patent US4415558A, “CRF And analogs” (The Salk Institute for Biological Studies, priority 1982, dated 1983).
Where a SMILES comes first, the peptide text is derived from it. The star is where a group is joined. Bz = O=C(c1ccccc1)*

Columns and labels:
[1] = test system: cultured rat pituitary cells; test: Secretion of ACTH and β-endorphin by cultured rat pituitary cells; format: cell-based; details: general procedure set forth in Example III; in vitro or in vivo not specified
Protocol: The synthetic and the natural CRF were examined for their effects on the secretion of ACTH and β-endorphin in vitro and the synthetic CRF was also examined in vivo. The high potency of synthetic and natural CRF to stimulate the secretion of ACTH and β-endorphin by cultured rat pituitary cells was measured. […] The secretory response to maximal (>5 nM) concentrations of CRF is at a plateau level. In vivo doses from 30 ng to 3 μg/Kg of body weight rapidly elevated ACTH and β-endorphin-like (β-END-LI) secretions 5-20 fold.

[2] = Blood pressure in rats (mean carotid blood pressure, urethane-anesthetized rat); format: in vivo; details: general procedure set forth in Example III
Protocol: Plasma levels of ACTH and β-END-LI are elevated for at least 5-20 minutes following the intravenous administration of CRF to nembutal-anesthesized male rats and to quiescent male or female rats with indwelling intravenous cannulae. […] Mean cartoid blood pressure in a urethane-anesthesized rat fell from 87 to 72±2 mm Hg and remained at that level for 30 minutes following an injection equal to 3 μg CRF/Kg body weight; the subsequent administration of an injection equal to 30 μg CRF/Kg body weight lowered mean blood pressure to 42±3 mm Hg for more than 2 hours.

SMILES: CC[C@H](C)[C@H](NC(=O)[C@H](CC(=O)O)NC(=O)[C@H](CC(C)C)NC(=O)[C@H](CC(C)C)NC(=O)[C@H](CCCCN)NC(=O)[C@H](CCCNC(=N)N)NC(=O)[C@H](CC(N)=O)NC(=O)[C@H](CO)NC(=O)[C@H](Cc1c[nH]cn1)NC(=O)[C@H](C)NC(=O)[C@H](CCC(N)=O)NC(=O)[C@H](CCC(N)=O)NC(=O)[C@H](C)NC(=O)[C@H](CC(C)C)NC(=O)[C@H](CCC(N)=O)NC(=O)[C@H](CC(=O)O)NC(=O)[C@H](C)NC(=O)[C@H](CCCCN)NC(=O)[C@@H](NC(=O)[C@H](CCSC)NC(=O)[C@H](CCC(=O)O)NC(=O)[C@H](CC(C)C)NC(=O)[C@@H](NC(=O)[C@H](CCC(=O)O)NC(=O)[C@H](CCCNC(=N)N)NC(=O)[C@H](CC(C)C)NC(=O)[C@H](CC(C)C)NC(=O)[C@H](Cc1c[nH]cn1)NC(=O)[C@H](Cc1ccccc1)NC(=O)[C@@H](NC(=O)[C@H](CC(C)C)NC(=O)[C@H](CC(=O)O)NC(=O)[C@H](CC(C)C)NC(=O)[C@H](CO)NC(=O)[C@@H](NC(=O)[C@@H]1CCCN1C(=O)[C@@H]1CCCN1C(=O)[C@H](CCC(=O)O)NC(=O)[C@H](CCC(N)=O)NC(=O)[C@H](C)NC(C)=O)[C@@H](C)CC)[C@@H](C)O)C(C)C)[C@@H](C)O)C(=O)N[C@@H](C)C(N)=O [[Acetyl-Ala^1]-CRF]
- Stimulation of secretion of ACTH and β-END-LI (in words) [1]: stimulates the secretion of ACTH and β-END-LI
- Lowering of blood pressure (in words) [2]: very significant lowering of blood pressure

SMILES: CC[C@H](C)[C@H](NC(=O)[C@H](CC(=O)O)NC(=O)[C@H](CC(C)C)NC(=O)[C@H](CC(C)C)NC(=O)[C@H](CCCCN)NC(=O)[C@H](CCCNC(=N)N)NC(=O)[C@H](CC(N)=O)NC(=O)[C@H](CO)NC(=O)[C@H](Cc1c[nH]cn1)NC(=O)[C@H](C)NC(=O)[C@H](CCC(N)=O)NC(=O)[C@H](CCC(N)=O)NC(=O)[C@H](C)NC(=O)[C@H](CC(C)C)NC(=O)[C@H](CCC(N)=O)NC(=O)[C@H](CC(=O)O)NC(=O)[C@H](C)NC(=O)[C@H](CCCCN)NC(=O)[C@@H](NC(=O)[C@H](CCSC)NC(=O)[C@H](CCC(=O)O)NC(=O)[C@H](CC(C)C)NC(=O)[C@@H](NC(=O)[C@H](CCC(=O)O)NC(=O)[C@H](CCCNC(=N)N)NC(=O)[C@H](CC(C)C)NC(=O)[C@H](CC(C)C)NC(=O)[C@H](Cc1c[nH]cn1)NC(=O)[C@H](Cc1ccccc1)NC(=O)[C@@H](NC(=O)[C@H](CC(C)C)NC(=O)[C@H](CC(=O)O)NC(=O)[C@H](CC(C)C)NC(=O)[C@H](CO)NC(=O)[C@@H](NC(=O)[C@@H]1CCCN1C(=O)[C@@H]1CCCN1C(C)=O)[C@@H](C)CC)[C@@H](C)O)C(C)C)[C@@H](C)O)C(=O)N[C@@H](C)C(N)=O [[Acetyl-Pro^4]-CRF]
- Stimulation of secretion of ACTH and β-END-LI (in words) [1]: stimulates the secretion of ACTH and β-END-LI
- Lowering of blood pressure (in words) [2]: very significant lowering of blood pressure to a greater extent than CRF

SMILES: CC[C@H](C)[C@H](NC(=O)[C@H](CCC(=O)O)NC(=O)[C@@H](NC(=O)[C@H](CCSC)NC(=O)[C@H](CCCCN)NC(=O)[C@H](CCCNC(=N)N)NC(=O)[C@H](CC(C)C)NC(=O)[C@H](CC(C)C)NC(=O)[C@H](CCC(=O)O)NC(=O)[C@H](CC(C)C)NC(=O)[C@H](CO)NC(=O)[C@H](CC(C)C)NC(=O)[C@H](CC(=O)O)NC(=O)[C@@H](NC(=O)[C@H](CO)NC(=O)[C@@H](NC(=O)[C@@H]1CCCN1C(=O)[C@@H]1CCCN1C(=O)CNC(=O)[C@@H]1CCC(=O)N1)[C@@H](C)CC)[C@@H](C)CC)[C@@H](C)CC)C(=O)N[C@@H](CCC(=O)O)C(=O)N[C@@H](CCCCN)C(=O)N[C@@H](CCC(N)=O)C(=O)N[C@@H](CCC(=O)O)C(=O)N[C@@H](CCCCN)C(=O)N[C@@H](CCC(=O)O)C(=O)N[C@@H](CCCCN)C(=O)N[C@@H](CCC(N)=O)C(=O)N[C@@H](CCC(N)=O)C(=O)N[C@@H](C)C(=O)N[C@@H](C)C(=O)N[C@@H](CC(N)=O)C(=O)N[C@@H](CC(N)=O)C(=O)N[C@@H](CCCNC(=N)N)C(=O)N[C@@H](CC(C)C)C(=O)N[C@@H](CC(C)C)C(=O)N[C@@H](CC(C)C)C(=O)N[C@@H](CC(=O)O)C(=O)N[C@@H](C)C(=O)N[C@@H](C)C(N)=O [[Ala^39, Ala^40]-sauvagine]
- Stimulation of secretion of ACTH and β-END-LI (in words) [1]: stimulates the secretion of ACTH and β-END-LI
- Lowering of blood pressure (in words) [2]: very significant lowering of blood pressure

SMILES: CC[C@H](C)[C@H](NC(=O)[C@H](CC(=O)O)NC(=O)[C@H](CC(C)C)NC(=O)[C@H](CC(C)C)NC(=O)[C@H](CCCCN)NC(=O)[C@H](CCCNC(=N)N)NC(=O)[C@H](CC(N)=O)NC(=O)[C@H](CO)NC(=O)[C@H](Cc1c[nH]cn1)NC(=O)[C@H](C)NC(=O)[C@H](CCC(N)=O)NC(=O)[C@H](CCC(N)=O)NC(=O)[C@H](C)NC(=O)[C@H](CC(C)C)NC(=O)[C@H](CCC(N)=O)NC(=O)[C@H](CC(=O)O)NC(=O)[C@H](C)NC(=O)[C@H](CCCCN)NC(=O)[C@@H](NC(=O)[C@H](CCSC)NC(=O)[C@H](CCC(=O)O)NC(=O)[C@H](CC(C)C)NC(=O)[C@@H](NC(=O)[C@H](CCC(=O)O)NC(=O)[C@H](CCCNC(=N)N)NC(=O)[C@H](CC(C)C)NC(=O)[C@H](CC(C)C)NC(=O)[C@H](Cc1c[nH]cn1)NC(=O)[C@H](CC(C)C)NC(=O)[C@@H](NC(=O)[C@H](CC(C)C)NC(=O)[C@H](CC(=O)O)NC(=O)[C@H](CC(C)C)NC(=O)[C@H](CO)NC(=O)[C@@H](NC(=O)[C@@H]1CCCN1C(=O)[C@@H]1CCCN1C(=O)[C@H](CCC(=O)O)NC(=O)[C@H](C)NC(=O)c1ccccc1)[C@@H](C)CC)[C@@H](C)O)C(C)C)[C@@H](C)O)C(=O)N[C@@H](C)C(N)=O [[Benzoyl-Ala^1, des Gln^2, Leu^12]-CRF] (Bz-AEPPISLDLTLHLLREVLEMTKADQLAQQAHSNRKLLDIA-NH2)
- Stimulation of secretion of ACTH and β-END-LI (in words) [1]: stimulates the secretion of ACTH and β-END-LI
- Lowering of blood pressure (in words) [2]: very significant lowering of blood pressure

SMILES: CC[C@H](C)[C@H](NC(=O)[C@@H](NC(=O)[C@H](CC(=O)O)NC(=O)[C@H](CC(C)C)NC(=O)[C@H](CC(C)C)NC(=O)[C@H](CC(C)C)NC(=O)[C@H](CCCNC(=N)N)NC(=O)[C@H](CC(N)=O)NC(=O)[C@H](CC(N)=O)NC(=O)[C@H](C)NC(=O)[C@H](C)NC(=O)[C@H](CCC(N)=O)NC(=O)[C@H](CCC(N)=O)NC(=O)[C@H](CCCCN)NC(=O)CNC(=O)[C@H](CCCCN)NC(=O)[C@H](CCC(=O)O)NC(=O)[C@H](CCC(N)=O)NC(=O)[C@H](CCCCN)NC(=O)[C@H](CCC(=O)O)NC(=O)[C@@H](NC(=O)[C@H](CCC(=O)O)NC(=O)[C@@H](NC(=O)[C@H](CCSC)NC(=O)[C@H](CCCCN)NC(=O)[C@H](CCCNC(=N)N)NC(=O)[C@H](CC(C)C)NC(=O)[C@H](CC(C)C)NC(=O)[C@H](CCC(=O)O)NC(=O)[C@H](CC(C)C)NC(=O)[C@H](CO)NC(=O)[C@H](CC(C)C)NC(=O)[C@H](CC(=O)O)NC(=O)[C@@H](NC(=O)[C@H](CO)NC(=O)[C@@H](NC(=O)[C@@H]1CCCN1C(=O)[C@@H]1CCCN1C(=O)CNC(=O)[C@@H]1CCC(=O)N1)[C@@H](C)CC)[C@@H](C)CC)[C@@H](C)CC)[C@@H](C)CC)[C@@H](C)O)C(N)=O [[Gly^26]-sauvagine]
- Stimulation of secretion of ACTH and β-END-LI (in words) [1]: stimulates the secretion of ACTH and β-END-LI
- Lowering of blood pressure (in words) [2]: very significant lowering of blood pressure

SMILES: CC[C@H](C)[C@H](NC(=O)[C@H](CC(=O)O)NC(=O)[C@H](CC(C)C)NC(=O)[C@H](CC(C)C)NC(=O)[C@H](CCCCN)NC(=O)[C@H](CCCNC(=N)N)NC(=O)[C@H](CC(N)=O)NC(=O)[C@H](CO)NC(=O)[C@H](Cc1c[nH]cn1)NC(=O)[C@H](C)NC(=O)[C@H](CCC(N)=O)NC(=O)[C@H](CCC(N)=O)NC(=O)[C@H](C)NC(=O)[C@H](CC(C)C)NC(=O)[C@H](CCC(N)=O)NC(=O)[C@H](CC(=O)O)NC(=O)[C@H](C)NC(=O)[C@H](CCCCN)NC(=O)[C@@H](NC(=O)[C@H](CCSC)NC(=O)[C@H](CCC(=O)O)NC(=O)[C@H](CC(C)C)NC(=O)[C@@H](NC(=O)[C@H](CCC(=O)O)NC(=O)[C@H](CCCNC(=N)N)NC(=O)[C@H](CC(C)C)NC(=O)[C@H](CC(C)C)NC(=O)[C@H](Cc1c[nH]cn1)NC(=O)[C@H](Cc1ccccc1)NC(=O)[C@@H](NC(=O)[C@H](CC(C)C)NC(=O)[C@H](CC(=O)O)NC(=O)[C@H](CC(C)C)NC(=O)[C@H](CO)NC(=O)[C@@H](NC(=O)[C@@H]1CCCN1C(=O)[C@@H]1CCCN1C(=O)[C@H](CCC(=O)O)NC(=O)[C@H](CCC(N)=O)NC(=O)[C@@H](N)CO)[C@@H](C)CC)[C@@H](C)O)C(C)C)[C@@H](C)O)C(N)=O [[des Ala^41]-CRF] (H-SQEPPISLDLTFHLLREVLEMTKADQLAQQAHSNRKLLDI-NH2)
- Stimulation of secretion of ACTH and β-END-LI (in words) [1]: stimulates the secretion of ACTH and β-END-LI
- Lowering of blood pressure (in words) [2]: very significant lowering of blood pressure
